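A five-concentration, 48-hour dose response in 96-well plates underlies each endpoint, interpolated linearly between surrounding concentrations. GI50: concentration for 50% inhibition of growth.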 Active and inactive are the calls of the source. Cut-off read from the data, not from the text of the source: active = GI50 up to about 1.1 µM and inactive = higher.
Legend:
Assay in all cases: NCI-60 cell line screen, 48 h
[1] = test system: A549
[2] = test system: EKVX
[3] = test system: HCC 2998
[4] = test system: HCT-15
[5] = test system: HL-60
[6] = test system: HOP-62
[7] = test system: HOP-92
[8] = test system: KM12
[9] = test system: LOX IMVI
[10] = test system: MOLT-4
[11] = test system: Malme-3M
[12] = test system: RPMI-8226
[13] = test system: SK-OV-3
[14] = test system: SNB-75
[15] = test system: TK-10
[16] = test system: UACC-257
[17] = test system: NCI-H460
[18] = test system: SNB-19
[19] = test system: U-251
[20] = test system: A498

SMILES | GI50 [1] | GI50 [2] | GI50 [3] | GI50 [4] | GI50 [5] | GI50 [6] | GI50 [7] | GI50 [8] | GI50 [9] | GI50 [10] | GI50 [11] | GI50 [12] | GI50 [13] | GI50 [14] | GI50 [15] | GI50 [16] | GI50 [17] | GI50 [18] | GI50 [19] | GI50 [20]
COC(=O)CSc1nc2[nH]c(SC)c(C(N)=O)c2c(=O)n1-c1ccccc1 | > 10 µM (inactive) | > 10 µM (inactive) | > 10 µM (inactive) | > 10 µM | > 10 µM (inactive) | > 10 µM (inactive) | > 10 µM (inactive) | > 10 µM (inactive) | > 10 µM (inactive) | > 10 µM (inactive) | > 10 µM (inactive) | > 10 µM (inactive) | > 10 µM (inactive) | > 10 µM (inactive) | > 10 µM (inactive) | > 10 µM (inactive) | – | – | – | –
C=CC1(c2ccc3ccccc3c2)OCC(CC)O1 (stereo not drawn) | 47.9 µM (inactive) | 25.1 µM (inactive) | 94.2 µM (inactive) | 45.6 µM | 4.37 µM (inactive) | 1.21 µM (inactive) | 36.7 µM (inactive) | 44.1 µM (inactive) | 21.8 µM (inactive) | 25.6 µM (inactive) | 30.5 µM (inactive) | 46.3 µM (inactive) | > 100 µM (inactive) | 30 µM (inactive) | > 100 µM (inactive) | 60.4 µM (inactive) | 48.2 µM (inactive) | 94 µM (inactive) | 57 µM (inactive) | –
Cc1ccc(S(=O)(=O)OC2=C/C(=N\c3onc(C)c3C)c3ccccc3C2=O)cc1 | 51.1 µM (inactive) | > 100 µM (inactive) | – | 29 µM | 6.43 µM (inactive) | 23.6 µM (inactive) | 18.8 µM (inactive) | 20.2 µM (inactive) | 18.6 µM (inactive) | 4.8 µM (inactive) | 17.9 µM (inactive) | 7.96 µM (inactive) | 28.7 µM (inactive) | 45.7 µM (inactive) | 36.6 µM (inactive) | 15.2 µM (inactive) | 32.8 µM (inactive) | 26.7 µM (inactive) | 4 µM (inactive) | > 100 µM (inactive)
CC(C)(CCCCC(C)(C)C1NC(=O)N1)C1NC(=O)N1 | > 10 µM (inactive) | > 10 µM (inactive) | > 10 µM (inactive) | > 10 µM | > 10 µM (inactive) | > 10 µM (inactive) | – | > 10 µM (inactive) | > 10 µM (inactive) | > 10 µM (inactive) | > 10 µM (inactive) | > 10 µM (inactive) | > 10 µM (inactive) | > 10 µM (inactive) | > 10 µM (inactive) | – | > 10 µM (inactive) | > 10 µM (inactive) | > 10 µM (inactive) | > 10 µM (inactive)
O[C@]12c3ccccc3C1CCCCC2N1CCOCC1 (stereo partly drawn) | > 100 µM (inactive) | > 100 µM (inactive) | – | > 100 µM | > 100 µM (inactive) | > 100 µM (inactive) | – | > 100 µM (inactive) | > 100 µM (inactive) | > 10 µM (inactive) | > 100 µM (inactive) | > 100 µM (inactive) | > 100 µM (inactive) | > 100 µM (inactive) | > 100 µM (inactive) | > 100 µM (inactive) | > 100 µM (inactive) | > 100 µM (inactive) | > 100 µM (inactive) | –
C#CC(O)(c1nc2ccccc2s1)c1nc2ccccc2s1 | 29 µM (inactive) | 19.3 µM (inactive) | – | 20.2 µM | 21 µM (inactive) | 26.2 µM (inactive) | 16.1 µM (inactive) | 29.4 µM (inactive) | 17.8 µM (inactive) | 28.8 µM (inactive) | 27 µM (inactive) | 21 µM (inactive) | – | – | 36.6 µM (inactive) | 25.1 µM (inactive) | – | 36.9 µM (inactive) | 18.7 µM (inactive) | 16.9 µM (inactive)
O=C(O)CCCCn1ccc(=O)[nH]c1=O | > 100 µM (inactive) | > 100 µM (inactive) | > 100 µM (inactive) | > 100 µM | > 100 µM (inactive) | > 100 µM (inactive) | – | > 100 µM (inactive) | > 100 µM (inactive) | > 100 µM (inactive) | > 100 µM (inactive) | > 100 µM (inactive) | > 100 µM (inactive) | > 100 µM (inactive) | > 100 µM (inactive) | > 100 µM (inactive) | > 100 µM (inactive) | > 100 µM (inactive) | > 100 µM (inactive) | > 100 µM (inactive)
C#C[C@@H](OC(=O)c1ccc([N+](=O)[O-])cc1)[C@@H]1C[C@H]2O[C@@H]([C@H](C/C=C/CC)OC(=O)c3ccc([N+](=O)[O-])cc3)C[C@H]2O1 | > 100 µM (inactive) | > 100 µM (inactive) | > 100 µM (inactive) | > 100 µM | – | > 100 µM (inactive) | > 100 µM (inactive) | > 100 µM (inactive) | > 100 µM (inactive) | > 100 µM (inactive) | > 100 µM (inactive) | > 100 µM (inactive) | > 100 µM (inactive) | > 100 µM (inactive) | > 100 µM (inactive) | > 100 µM (inactive) | > 100 µM (inactive) | > 100 µM (inactive) | > 100 µM (inactive) | > 100 µM (inactive)

From ChEMBL document CHEMBL1201862, “PubChem BioAssay data set” (2004)
